{"source": "patent US20180256673A1", "about": "“METHODS FOR TREATING FUNGAL INFECTIONS” (priority 2015, published 2018)", "key": {"[1]": {"system": "C. albicans vaginal isolates", "assay": "Susceptibility testing of VVC clinical isolates at pH 7 and 4 (CLSI M27-A3)", "type": "cell-based, Candida albicans", "conditions": "Candida albicans, 48 h, pH 7"}, "[2]": {"system": "C. glabrata vaginal isolates", "assay": "Susceptibility testing of VVC clinical isolates at pH 7 and 4 (CLSI M27-A3)", "type": "cell-based, Candida glabrata", "conditions": "Nakaseomyces glabratus"}, "[3]": {"system": "C. parapsilosis vaginal isolates", "assay": "Susceptibility testing of VVC clinical isolates at pH 7 and 4 (CLSI M27-A3)", "type": "cell-based, Candida parapsilosis"}, "[4]": {"system": "C. tropicalis vaginal isolates", "assay": "Susceptibility testing of VVC clinical isolates at pH 7 and 4 (CLSI M27-A3)", "type": "cell-based", "conditions": "Candida tropicalis"}, "[5]": {"system": "Candida parapsilosis", "assay": "Broth microdilution of invasive fungal isolates (CLSI M27-A3/M38-A2)", "type": "cell-based"}, "[6]": {"system": "Candida krusei", "assay": "Broth microdilution of invasive fungal isolates (CLSI M27-A3/M38-A2)", "type": "cell-based"}, "[7]": {"system": "Candida dubliniensis", "assay": "Broth microdilution of invasive fungal isolates (CLSI M27-A3/M38-A2)", "type": "cell-based"}, "[8]": {"system": "C. albicans NRRL Y-477", "assay": "Broth microdilution MIC (CLSI), Examples 3 and 4", "conditions": "Candida albicans", "protocol": "Antifungal susceptibility testing. […] MIC assays were performed in triplicate."}}, "note": "Where two headings read alike, the source gives them in different places. Starred links: 1 amine or outer side, 2 acyl side, 3 side chain; linkers in the order of their positions; H or OH if unused. Positions of bridges follow the written chain, without caps; N, C: chain ends. Non-standard residues stand in square brackets, D forms with d. Residues, ends and D or L forms follow the SMILES beside them. *: point of attachment. pTerphenylCO(4''-OnC5H11) = CCCCCOc1ccc(-c2ccc(-c3ccc(C(=O)*)cc3)cc2)cc1; Orn(4R-OH,5R-OH) = O=C([C@H](C[C@@H](O)[C@@H](O)N[*:3])N[*:1])[*:2]; hTyr(3S-OH,4S-OH) = N[C@H](C(=O)O)[C@H](O)[C@@H](O)c1ccc(O)cc1; Pro(3S-OH,4S-Me) = C[C@H]1CN[C@H](C(=O)O)[C@H]1O; Hyp = O=C(O)[C@@H]1C[C@@H](O)CN1", "data": [{"compound": "CCCCCOc1ccc(-c2ccc(-c3ccc(C(=O)N[C@H]4C[C@@H](O)[C@@H](O)NC(=O)[C@@H]5[C@@H](O)[C@@H](C)CN5C(=O)[C@H]([C@@H](C)O)NC(=O)[C@H]([C@H](O)[C@@H](O)c5ccc(O)cc5)NC(=O)[C@@H]5C[C@@H](O)CN5C(=O)[C@H]([C@@H](C)O)NC4=O)cc3)cc2)cc1", "note": "[ANID, anidulafungin] ({pTerphenylCO(4''-OnC5H11)}-[Orn(4R-OH,5R-OH)]T[Hyp][hTyr(3S-OH,4S-OH)]T[Pro(3S-OH,4S-Me)]; lactam 1-C)", "values": [{"measurement": "MIC", "setting": "[1]; pH 7, fluconazole-resistant isolate 3", "value": 0.008, "unit": "µg/mL"}, {"measurement": "MIC", "setting": "[1]; pH 7, fluconazole-resistant isolate 4", "value": 0.008, "unit": "µg/mL"}, {"measurement": "MIC", "setting": "[1]; pH 7, fluconazole-resistant isolate 5", "value": 0.016, "unit": "µg/mL"}, {"measurement": "MIC", "setting": "[1]; pH 7, fluconazole-resistant isolate 6", "value": 0.008, "unit": "µg/mL"}, {"measurement": "MIC", "setting": "[1]; pH 7, fluconazole-resistant isolate 7", "value": 0.008, "unit": "µg/mL"}, {"measurement": "MIC", "setting": "[1]; pH 7, fluconazole-resistant isolate 8", "value": 0.008, "unit": "µg/mL"}, {"measurement": "MIC", "setting": "[1]; pH 7, fluconazole-resistant isolate 9", "value": 0.125, "unit": "µg/mL"}, {"measurement": "MIC", "setting": "[1]; pH 7, fluconazole-resistant isolate 10", "value": 0.008, "unit": "µg/mL"}, {"measurement": "MIC90", "setting": "[2]; 24 h, pH 4", "value": 0.125, "unit": "µg/mL"}, {"measurement": "MIC90", "setting": "[2]; 24 h, pH 7", "value": 0.03, "unit": "µg/mL"}, {"measurement": "MIC90", "setting": "[2]; 48 h, pH 4", "value": 0.25, "unit": "µg/mL"}, {"measurement": "MIC90", "setting": "[2]; 48 h, pH 7", "value": 0.06, "unit": "µg/mL"}, {"measurement": "MIC90", "setting": "[3]; 24 h, pH 4", "value": 1, "unit": "µg/mL"}, {"measurement": "MIC90", "setting": "[3]; 24 h, pH 7", "value": 2, "unit": "µg/mL"}, {"measurement": "MIC90", "setting": "[3]; 48 h, pH 4", "value": 2, "unit": "µg/mL"}, {"measurement": "MIC90", "setting": "[3]; 48 h, pH 7", "value": 4, "unit": "µg/mL"}, {"measurement": "MIC90", "setting": "[4]; 24 h, pH 4", "value": 0.125, "unit": "µg/mL"}, {"measurement": "MIC90", "setting": "[4]; 24 h, pH 7", "value": 0.03, "unit": "µg/mL"}, {"measurement": "MIC90", "setting": "[4]; 48 h, pH 4", "value": 0.5, "unit": "µg/mL"}, {"measurement": "MIC90", "setting": "[4]; 48 h, pH 7", "value": 0.06, "unit": "µg/mL"}, {"measurement": "Cumulative % of isolates inhibited at MIC 0.5 μg/mL", "setting": "[5]; 92 isolates", "value": "(4.3) %"}, {"measurement": "Cumulative % of isolates inhibited at MIC 1 μg/mL", "setting": "[5]; 92 isolates", "value": "(34.8) %"}, {"measurement": "Cumulative % of isolates inhibited at MIC 2 μg/mL", "setting": "[5]; 92 isolates", "value": "(82.6) %"}, {"measurement": "Cumulative % of isolates inhibited at MIC 4 μg/mL", "setting": "[5]; 92 isolates", "value": "(100.0) %"}, {"measurement": "Number of isolates inhibited at MIC 0.5 μg/mL", "setting": "[5]; 92 isolates", "value": 4}, {"measurement": "Number of isolates inhibited at MIC 1 μg/mL", "setting": "[5]; 92 isolates", "value": 28}, {"measurement": "Number of isolates inhibited at MIC 2 μg/mL", "setting": "[5]; 92 isolates", "value": 44}, {"measurement": "Number of isolates inhibited at MIC 4 μg/mL", "setting": "[5]; 92 isolates", "value": 16}, {"measurement": "MIC50", "setting": "[5]; Lodderomyces parapsilosis", "value": 2, "unit": "µg/mL"}, {"measurement": "MIC90", "setting": "[5]; Lodderomyces parapsilosis", "value": 4, "unit": "µg/mL"}, {"measurement": "Cumulative % of isolates inhibited at MIC 0.015 μg/mL", "setting": "[6]; 16 isolates", "value": 6.2, "unit": "%"}, {"measurement": "Cumulative % of isolates inhibited at MIC 0.03 μg/mL", "setting": "[6]; 16 isolates", "value": "(43.8) %"}, {"measurement": "Cumulative % of isolates inhibited at MIC 0.06 μg/mL", "setting": "[6]; 16 isolates", "value": "(100.0) %"}, {"measurement": "Number of isolates inhibited at MIC 0.015 μg/mL", "setting": "[6]; 16 isolates", "value": 1}, {"measurement": "Number of isolates inhibited at MIC 0.03 μg/mL", "setting": "[6]; 16 isolates", "value": 6}, {"measurement": "Number of isolates inhibited at MIC 0.06 μg/mL", "setting": "[6]; 16 isolates", "value": 9}, {"measurement": "MIC50", "setting": "[6]; Pichia kudriavzevii", "value": 0.06, "unit": "µg/mL"}, {"measurement": "MIC90", "setting": "[6]; Pichia kudriavzevii", "value": 0.06, "unit": "µg/mL"}, {"measurement": "Cumulative % of isolates inhibited at MIC 0.015 μg/mL", "setting": "[7]; 11 isolates", "value": "(9.1) %"}, {"measurement": "Cumulative % of isolates inhibited at MIC 0.03 μg/mL", "setting": "[7]; 11 isolates", "value": "(36.4) %"}, {"measurement": "Cumulative % of isolates inhibited at MIC 0.06 μg/mL", "setting": "[7]; 11 isolates", "value": "(100.0) %"}, {"measurement": "Number of isolates inhibited at MIC 0.015 μg/mL", "setting": "[7]; 11 isolates", "value": 1}, {"measurement": "Number of isolates inhibited at MIC 0.03 μg/mL", "setting": "[7]; 11 isolates", "value": 3}, {"measurement": "Number of isolates inhibited at MIC 0.06 μg/mL", "setting": "[7]; 11 isolates", "value": 7}, {"measurement": "MIC50", "setting": "[7]; Candida dubliniensis", "value": 0.06, "unit": "µg/mL"}, {"measurement": "MIC90", "setting": "[7]; Candida dubliniensis", "value": 0.06, "unit": "µg/mL"}, {"measurement": "MIC", "setting": "[8]; NRRLY477", "value": 0.25, "unit": "µg/mL"}, {"measurement": "MIC", "setting": "[8]; NRRLY477, 24 h, read-out: Broth MIC", "value": 0.015, "unit": "µg/mL"}]}]}
